One experiment relates to GFP-wt-CFTR. As to the kind of experiment: Image Correlation Spectroscopy of GFP-wt-CFTR aggregation at the plasma membrane. The class given is cell-based, human. The settings on record: for CFTR clustering / platforms (degree of aggregation) at the plasma membrane: primary human bronchial epithelial cells, fenretinide 1.25 μM 24 h pretreatment, Thaps 2 μM 10-20 min. The procedure:
FIGS. 3A-E are confocal images of GFP-wt-CFTR expressed at the plasma membrane of pHBE cells under control conditions (Ctr) (FIG. 3A); after 10-20 min treatment with 2 μM Thapsigargin (FIG. 3B); after treatment with 1.25 μM Fenretinide (FIG. 3C); after treatment with 1.25 μM Fenretinide and Thapsigargin (same conditions as above) (FIG. 3D); or after treatment with 1.25 μM Fenretinide+Thapsigargin (same conditions as above)+Amitriptyline (13 μM for 40 min) (FIG. 3E).
FIG. 3F is a graph showing the quantification of CFTR aggregation and accumulation at the cell surface under control conditions (Ctr), after treatment with Thapsigargin (Thaps), after treatment with Fenretinide (Fen), and after treatment with Fenretinide and Thapsigargin (Fen+Thaps).
It was next tested whether fenretinide and/or zinc could have an effect on the ability of native CFTR-expressing epithelial cells to transport chloride. CFTR is known to become localized in relatively stable platforms during viral infection (Abu-Arish et al., 2015). The formation of such platforms expressing CFTR was measured following treatment with fenretinide. The Image Correlation Spectroscopy technique was used to measure the degree of aggregation of GFP-wt-CFTR at the plasma membrane of primary human bronchial epithelial cells. The degree of aggregation is proportional to the mean number of CFTR channels per cluster or platform. Confocal images of CFTR at the plasma membrane were collected for analysis under control (Ctr), thapsigargin (Thaps), fenretinide (Fen) or a combination of Fen+Thaps. Cells were pretreated or not with fenretinide at 1.25 μM for 24 h before imaging whereas Thaps (2 μM) exposures were acute (10-20 min).

The subject of experiment [1] is cytoplasmic phospholipases (cPLA2). Kind of experiment: cPLA2 activity in lung epithelial cells (commercial kit). The class given is cell-based, human. The procedure: FIG. 1 is a graph showing the effect of fenretinide and Zn^2+ treatment on the activity of cytoplasmic phospholipases (cPLA2). Lung epithelial cells were treated with 1.25 μM fenretinide (Fen) and/or 12.5 μM zinc sulfate (Zn^2+) for 12, 24, 48 or 72 hours and the activity of PLA2 was assessed using a commercially available ELISA kit (Abcam, cat. No. ab133090). All statistical analyses were performed using GraphPad™ software (GraphPad, San Diego, Calif., USA). Statistical significance of differences was evaluated using unpaired t-test with Welch's correction. Data are represented as means±SD (*p 0.05, **p 0.01, ***p 0.001, ****p 0.0001). All experiments were done in triplicates (n=3).
The effect of fenretinide (Fen) and/or zinc (Zn^2+) ions on the lipid metabolism in human airway epithelial cells was assessed the modulation of cytoplasmic phospholipases (cPLA2) activity. cPLA2 activity, as evaluated by colorimetric assay, was decreased following fenretinide treatment in a time dependent fashion, starting 24h after treatment (FIG. 1).

The subject of experiment [2] is airway epithelial cells overexpressing the delF508 mutated form of CFTR (delF508/delF508). As to the kind of experiment: DHA and AA fatty acid levels in airway epithelial cells overexpressing delF508 CFTR. The class given is cell-based, human. Conditions: 72h, relative to untreated cells; for DHA levels: 1.25 μM fenretinide and/or 12.5 μM zinc sulfate. On the procedure:
FIGS. 2A-C are graphs showing the effect of fenretinide, Zn^2+ treatment on the level of DHA (FIG. 2A), AA (FIG. 2B) and their ratio (FIG. 2C) in lung epithelial cells overexpressing a mutant form of CFTR (CFTR-delF508) or native CFTR (wt CFTR). Lung epithelial cells grown as 80% confluent monolayer of were treated for 72h with 1.25 μM fenretinide and/or 12.5 μM zinc sulfate. The levels of AA and DHA were assessed as previously described in Guilbault et al. 2008, 2009. All statistical analyses were performed using GraphPad™ software (GraphPad, San Diego, Calif., USA). Statistical significance of differences was evaluated using unpaired t-test with Welch's correction. Data are represented as means±SD (*p≤0.05, **p≤0.01, ***p≤0.001, ****p≤0.0001). All experiments were done in triplicates (n=3).
It was next assessed whether fenretinide and zinc modulate the levels of omega-3 (docosahexaenoic acid, DHA) and omega-6 (arachidonic acid, AA) fatty acids in airway epithelial cells overexpressing the delF508 mutated form of CFTR (delF508/delF508) or native CFTR (wt CFTR). […] For AA levels, all treatments led to a significant decrease in AA levels in delF508 CFTR-expressing cells (relative to untreated cells), but not in native CFTR-expressing cells.

The target of a further experiment is T1, F508del-CFTR (Homo sapiens, UniProt P13569, DEL508-508).
T1 construct: host or cells: polarized bronchial epithelial cells
T1 sequence (P13569 with tags, fused parts or gaps DEL508-508): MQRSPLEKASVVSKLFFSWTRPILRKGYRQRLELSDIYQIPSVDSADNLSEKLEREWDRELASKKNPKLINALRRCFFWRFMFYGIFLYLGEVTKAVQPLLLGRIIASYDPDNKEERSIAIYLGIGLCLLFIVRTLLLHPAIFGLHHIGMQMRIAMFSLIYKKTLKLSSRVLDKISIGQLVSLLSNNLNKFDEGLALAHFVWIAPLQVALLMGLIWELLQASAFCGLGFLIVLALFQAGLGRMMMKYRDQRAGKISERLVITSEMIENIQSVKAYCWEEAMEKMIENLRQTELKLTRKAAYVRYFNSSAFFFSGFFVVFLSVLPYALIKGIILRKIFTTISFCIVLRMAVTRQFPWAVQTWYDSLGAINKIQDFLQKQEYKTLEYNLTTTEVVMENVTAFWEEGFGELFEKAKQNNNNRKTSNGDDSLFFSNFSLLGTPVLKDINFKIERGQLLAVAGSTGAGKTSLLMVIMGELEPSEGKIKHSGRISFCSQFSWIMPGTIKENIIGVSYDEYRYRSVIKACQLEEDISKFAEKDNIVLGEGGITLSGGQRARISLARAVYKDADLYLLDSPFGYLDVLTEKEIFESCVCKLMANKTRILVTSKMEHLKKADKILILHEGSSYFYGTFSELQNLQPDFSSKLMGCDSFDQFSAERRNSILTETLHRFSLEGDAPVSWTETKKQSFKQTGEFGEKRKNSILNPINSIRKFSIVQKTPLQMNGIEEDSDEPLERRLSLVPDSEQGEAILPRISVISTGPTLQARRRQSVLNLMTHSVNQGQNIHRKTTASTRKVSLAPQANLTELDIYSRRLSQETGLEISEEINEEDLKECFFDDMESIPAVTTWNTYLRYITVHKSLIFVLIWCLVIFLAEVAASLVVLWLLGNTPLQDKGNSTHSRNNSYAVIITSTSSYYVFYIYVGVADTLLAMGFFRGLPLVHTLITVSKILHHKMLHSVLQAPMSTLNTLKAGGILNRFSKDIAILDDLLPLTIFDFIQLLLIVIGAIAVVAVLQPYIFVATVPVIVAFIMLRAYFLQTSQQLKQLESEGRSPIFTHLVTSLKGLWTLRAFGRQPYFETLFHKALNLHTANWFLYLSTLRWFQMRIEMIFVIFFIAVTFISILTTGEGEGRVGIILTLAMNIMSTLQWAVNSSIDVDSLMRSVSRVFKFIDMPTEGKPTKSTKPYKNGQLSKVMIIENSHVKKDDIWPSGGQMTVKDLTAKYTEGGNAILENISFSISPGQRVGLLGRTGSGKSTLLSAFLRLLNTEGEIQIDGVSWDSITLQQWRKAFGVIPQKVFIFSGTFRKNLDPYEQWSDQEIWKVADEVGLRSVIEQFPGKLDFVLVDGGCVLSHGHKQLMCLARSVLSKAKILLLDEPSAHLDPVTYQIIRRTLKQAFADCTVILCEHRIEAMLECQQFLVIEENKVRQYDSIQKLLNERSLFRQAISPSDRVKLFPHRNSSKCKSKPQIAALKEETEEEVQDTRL
As to the kind of experiment: Ussing chamber F508del-CFTR conductance across basally permeabilized polarized cells. The class given is cell-based. Conditions: 1.25 μM Fen alone for 3 days, 1 μM VX-809 last 24h. On the procedure: FIG. 5 is a graph showing the effect of Zinc and/or Fenretinide treatment on F508del-CFTR function after partial rescue by VX-809 (809) in the absence and presence of 50 μM of the potentiator genistein (acts similarly to VX770). Ussing Chambers were used to measure F508del-CFTR conductance by measuring the short-circuit current across basally permeabilized polarized cells in response to forskolin (FSK) or forskolin+genistein (FSK+Gen). Treatment: Cells were treated basally or not with 1.25 μM fenretinide (Fen) or the combination a combination of 1.25 μM Fenretinide and 12.5 μM Zinc (FenZn) for 3 days. 1 μM VX-809 was added bilaterally during the last 24h. Unpaired student t-test was used for statistical analysis.
FIG. 6 is a graph showing the effect of Zinc and/or Fenretinide treatment on F508del-CFTR mediated secretion in the absence of VX-809. Ussing Chambers were used to measure F508del-CFTR functional expression as short-circuit current across polarized and basally permeabilized bronchial epithelial cells in response to forskolin (FSK) or forskolin+genistein (FSK+Gen). Cells were treated basally or not with 1.25 μM Fenretinide (Fen) and/or 12.5 μM Zinc (Zn) for 3 days. […]

As for `CN(C)CCC=C1c2ccccc2CCc2ccccc21` [Amitriptyline], the “Induction of CFTR platform formation by fenretinide+thapsigargin” value in the experiment with GFP-wt-CFTR (in the presence of Amitriptyline 13 μM for 40 min) was “inhibited”.
For `CC1=C(/C=C/C(C)=C/C=C/C(C)=C/C(=O)Nc2ccc(O)cc2)C(C)(C)CCC1` [fenretinide, all-trans-N-(4-hydroxyphenyl) retinamide], the cPLA2 activity entry in experiment [1] (1.25 μM fenretinide, 12, 24, 48 or 72 hours) is “decreased”. In experiment [2], the DHA levels entry was “significant increase” and the DHA/AA ratio entry was “significant increase”. The F508del-CFTR channel function result at F508del-CFTR is given as “significant increase”. The “CFTR clustering / platforms (degree of aggregation) at the plasma membrane” value with GFP-wt-CFTR is listed as “did not affect CFTR clustering”.
For the compound `C/C=C(/C)C(=O)O[C@H]1C(C)=C2[C@H]([C@@H]1OC(=O)CCCCCCC)[C@@](C)(OC(C)=O)C[C@H](OC(=O)CCC)[C@@]1(O)[C@H]2OC(=O)[C@@]1(C)O` [thapsigargin], in the experiment with GFP-wt-CFTR, the “CFTR clustering / platforms (degree of aggregation) at the plasma membrane” value was “induces some CFTR platforms”.
For zinc sulfate, the cPLA2 activity entry in experiment [1] (12.5 μM zinc sulfate in the absence of fenretinide, 72h) was “significantly increase”. In experiment [1] (12.5 μM zinc sulfate with 1.25 μM fenretinide, 24h and 48h), the “cPLA2 activity, effect of zinc added to fenretinide” value is “potentiate the effect of fenretinide”. Also, in experiment [2], the DHA levels entry was “significant increase” and the DHA/AA ratio entry is given as “significant increase”.

Values taken from patent US11510945B2, “Compositions and methods for enhancing ion transporter activity and uses thereof” (THE ROYAL INSTITUTION FOR THE ADVANCEMENT OF …, priority 2018, dated 2022).
